# Measurements reported in patent publication EP4745138A1, “THIO-GLUTARIMIDO ISOINDOLINONE DERIVATIVE, BIFUNCTIONAL PROTEIN DEGRADER CONTAINING SAME, AND USES THEREOF” (Gluetacs Therapeutics (Shanghai) Co., Ltd., priority 2023, dated 2025).
# Target: T1, human Cereblon WT GST-tagged protein (Homo sapiens, UniProt Q96SW2)
# T1 construct: purchased CISBIO 64BDCRBNPEH
# Assay: CRBN-binding affinity, HTRF (CEREBLON BINDING kit)
# Conditions: for inhibition at 0.5 µM: read-out: Inhibition Rate at 0.5 µM (%); for inhibition at 2 µM: read-out: Inhibition Rate at 2 µM (%)
# Text: The CEREBLON BINDING kits (specification: 10,000 tests; product number: Catalog # 64BDCRBNPEH; CISBIO company) was used to determine the CRBN binding ability of the compounds to be tested through a HTRF method (homogeneous time-resolved fluorescence). The specific methods are as follows: • 1. […] Specifically, diluent #9 (1X) solution was used as the diluent, and multiple concentration gradients were set. […] Into the 96-well plate, the diluted test compounds and corresponding detection reagents were added, resulting in final test compound concentrations of 2 µM and 0.5 µM, respectively. […] Then, 2.5 µL of human Cereblon WT GST-tagged protein solution was added to each well. Finally, 5 µL of the thoroughly mixed Thalidomide-Re reagent and GST Eu antibody working solution were added to each of the aforementioned wells. […] The blank control wells were sequentially added with 2.5 µL of diluent #9 (1X) solution, 2.5 µL of PROTAC binding buffer, and 5 µL of thoroughly mixed Thalidomide-Re reagent and GST Eu antibody working solution. • 4.
# T1 sequence (Q96SW2 whole entry): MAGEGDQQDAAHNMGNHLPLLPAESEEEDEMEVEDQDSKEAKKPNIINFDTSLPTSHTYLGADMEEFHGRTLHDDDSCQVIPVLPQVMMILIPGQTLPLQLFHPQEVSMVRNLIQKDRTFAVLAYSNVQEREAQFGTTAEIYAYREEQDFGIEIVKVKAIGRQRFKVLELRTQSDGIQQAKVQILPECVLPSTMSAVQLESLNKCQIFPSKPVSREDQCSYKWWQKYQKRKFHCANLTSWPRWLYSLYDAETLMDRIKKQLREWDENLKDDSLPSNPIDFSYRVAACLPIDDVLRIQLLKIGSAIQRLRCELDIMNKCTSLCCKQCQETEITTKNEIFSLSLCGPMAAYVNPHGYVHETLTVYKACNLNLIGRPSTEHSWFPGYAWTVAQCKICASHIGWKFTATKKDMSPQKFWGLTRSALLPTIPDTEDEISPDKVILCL
SMILES,inhibition at 0.5 µM [%],inhibition at 2 µM [%]
"CCN(c1cc(-c2ccc(CN3CCN(Cc4ccc5c(c4)CN(C4CCC(=O)NC4=O)C5=S)CC3)cc2)cc(C(=O)NCc2c(C)cc(C)[nH]c2=O)c1C)C1CCOCC1 (stereo not drawn) [GT-08886, N-((4,6-dimethyl-2-oxo-1,2-dihydropyridin-3-yl)methyl)-4'-((4-((2-(2,6-dioxopiperidin-3-yl)-1-thioxoisoindolin-5-yl)methyl)piperazin-1-yl)methyl)-5-(ethyl(tetrahydro-2H-pyran-4-yl)amino)-4-methyl-[1,1-biphenyl]-3-carboxamide]",53 to 60,80 to 100
"COc1cc2nn(C3CCN(Cc4ccc5c(c4)CN(C4CCC(=O)NC4=O)C5=S)CC3)cc2cc1NC(=O)c1cccc(C(F)(F)F)c1 (stereo not drawn) [GT-05295, N-(2-(1-((2-(2,6-dioxopiperidin-3-yl)-1-thioxoisoindolin-5-yl)methyl)piperidin-4-yl)-6-methoxy-2H-indazol-5-yl)-3-(trifluoromethyl)benzamide]",60 to 80,80 to 100
"Nc1nnc(-c2cc(F)ccc2O)cc1N1CCN(Cc2cccc3c2CN(C2CCC(=O)NC2=O)C3=S)CC1 (stereo not drawn) [GT-08788, 3-(4-((4-(3-amino-6-(5-fluoro-2-hydroxyphenyl)pyridazin-4-yl)piperazin-1-yl)methyl)-1-thioxoisoindolin-2-yl)piperidine-2,6-dione]",40 to 53,80 to 100
"Nc1nc(Nc2ccc(S(=O)(=O)N3CCN(Cc4cccc5c4CN(C4CCC(=O)NC4=O)C5=S)CC3)cc2)nn1C(=O)c1c(F)cccc1F (stereo not drawn) [GT-08795, 3-(4-((4-((4-((5-amino-1-(2,6-difluorobenzoyl)-1H-1,2,4-triazol-3-yl)amino)phenyl)sulfony 1)piperazin-1-yl)methyl)-1-thioxoisoindolin-2-yl)piperidine-2,6-dione]",53 to 60,60 to 80
"CC(C)(O)c1cc2nc(C3CCN(Cc4ccc5c(c4)CN(C4CCC(=O)NC4=O)C5=S)CC3)oc2cc1NC(=O)c1cccc(C(F)(F)F)n1 (stereo not drawn) [GT-05320, N-(2-(1-((2-(2,6-dioxopiperidin-3-yl)-1-thioxoisoindolin-5-yl)methyl)piperidin-4-yl)-5-(2-hydroxypropan-2-yl)benzo[d]oxazol-6-yl)-6-(trifluoromethyl)picolinamide]",80 to 100,80 to 100
"Cc1cc(-c2ccc3c4cnccc4n(C)c3c2)cnc1N1CCN(Cc2ccc3c(c2)CN(C2CCC(=O)NC2=O)C3=S)CC1 (stereo not drawn) [GT-08980, 3-(5-((4-(3-methyl-5-(5-methyl-5H-pyrido[4,3-b]indol-7-yl)pyridin-2-yl)piperazin-1-yl)methyl)-1-thioxoisoindolin-2-yl)piperidine-2,6-dione]",40 to 53,60 to 80
"COc1ccc2cn(C3CCN(Cc4ccc5c(c4)CN(C4CCC(=O)NC4=O)C5=S)CC3)nc2c1NC(=O)c1cccc(C(F)(F)F)c1 (stereo not drawn) [GT-09413, N-(2-(1-((2-(2,6-dioxopiperidin-3-yl)-1-thioxoisoindolin-5-yl)methyl)piperidin-4-yl)-6-methoxy-2H-indazol-7-yl)-3-(trifluoromethyl)benzamide]",60 to 80,100 to 110
"CC(=O)c1c(C)c2cnc(Nc3ccc(N4CCN(Cc5ccc6c(c5)C(=S)N(C5CCC(=O)NC5=O)C6)CC4)cn3)nc2n(C2CCCC2)c1=O (stereo not drawn) [GT-09428, 3-(6-((4-(6-((6-acetyl-8-cyclopentyl-5-methyl-7-oxo-7,8-dihydropyrido[2,3-d]pyrimidin-2-yl)amino)pyridin-3-yl)piperazin-1-yl)methyl)-1-thioxoisoindolin-2-yl)piperidine-2,6-dione]",40 to 53,60 to 80
"CC1(C)CCC(c2ccc(Cl)cc2)=C(CN2CCN(c3ccc(C(=O)NS(=O)(=O)c4ccc(N[C@H](CCN5CC6CCC(C5)N6Cc5ccc6c(c5)CN(C5CCC(=O)NC5=O)C6=S)CSc5ccccc5)c(S(=O)(=O)C(F)(F)F)c4)cc3)CC2)C1 (stereo partly drawn) [GT-09416, 4-(4-((4'-chloro-4,4-dimethyl-3,4,5,6-tetrahydro-[1,1'-biphenyl]-2-yl)methyl)piperazin-1-yl)-N-((4-(((2R)-4-(8-((2-(2,6-dioxopiperidin-3-yl)-1-thioxoisoindolin-5-yl)methyl)-3,8-diazabicyclo[3.2.1]octan-3-yl)-1-(phenylthio)butan-2-yl)amino)-3-((trifluoromethyl)sulfonyl)phenyl)sulfonyl)benzamide]",80 to 100,80 to 100
"CN(c1cccc(CNc2nc(Nc3ccc(N4CCN(Cc5ccc6c(c5)C(=S)N(C5CCC(=O)NC5=O)C6)CC4)cc3)ncc2C(F)(F)F)c1)S(C)(=O)=O (stereo not drawn) [GT-09438, N-(3-(((2-((4-(4-((2-(2,6-dioxopiperidin-3-yl)-3-thioxoisoindolin-5-yl)methyl)piperazin-1-yl)phenyl)amino)-5-(trifluoromethyl)pyrimidin-4-yl)amino)methyl)phenyl)-N-methylmethanesulfonamide]",53 to 60,60 to 80
"CCc1cc2c(cc1N1CCN(Cc3ccc4c(c3)CN(C3CCC(=O)NC3=O)C4=S)CC1)C(C)(C)c1[nH]c3cc(C#N)ccc3c1C2=O (stereo not drawn) [GT-09424, 8-(4-((2-(2,6-dioxopiperidin-3-yl)-1-thioxoisoindolin-5-yl)methyl)piperazin-1-yl)-9-ethyl-6,6-dimethyl-11-oxo-6,11-dihydro-5H-benzo[b]carbazole-3-carbonitrile]",40 to 53,60 to 80
"Nc1nnc(-c2ccccc2O)cc1N1CCN(Cc2ccc3c(c2)CN(C2CCC(=O)NC2=O)C3=S)CC1 (stereo not drawn) [GT-08785, 3-(5-((4-(3-amino-6-(2-hydroxyphenyl)pyridazin-4-yl)piperazin-1-yl)methyl)-1-thioxoisoindolin-2-yl)piperidine-2,6-dione]",60 to 80,80 to 100
"O=C1CCC(N2Cc3cc(CN4CCN(c5ncc(C(=O)Nc6ccc(OC(F)(F)Cl)cc6)cc5-c5cc[nH]n5)CC4)ccc3C2=S)C(=O)N1 (stereo not drawn) [GT-08769, N-(4-(chlorodifluoromethoxy)phenyl)-6-(4-((2-(2,6-dioxopiperidin-3-yl)-1-thioxoisoindolin-5-yl)methyl)piperazin-1-yl)-5-(1H-pyrazol-3-yl)nicotinamide]",53 to 60,80 to 100
"Cn1c2ccncc2c2ccc(-c3cnc(N4CCN(Cc5ccc6c(c5)CN(C5CCC(=O)NC5=O)C6=S)CC4)c(Cl)c3)cc21 (stereo not drawn) [GT-08978, 3-(5-((4-(3-chloro-5-(5-methyl-5H-pyrido[4,3-b]indol-7-yl)pyridin-2-yl)piperazin-1-yl)methyl)-1-thioxoisoindolin-2-yl)piperidine-2,6-dione]",60 to 80,60 to 80
"O=C1CCC(N2Cc3cc(CN4CCC(NC(=O)c5n[nH]cc5NC(=O)c5c(Cl)cccc5Cl)CC4)ccc3C2=S)C(=O)N1 (stereo not drawn) [GT-09434, 4-(2,6-dichlorobenzamido)-N-(1-((2-(2,6-dioxopiperidin-3-yl)-1-thioxoisoindolin-5-yl)methyl)piperidin-4-yl)-1H-pyrazole-3-carboxamide]",53 to 60,80 to 100
"Nc1nnc(-c2cc(F)ccc2O)cc1N1CC2CCC(C1)N2Cc1ccc2c(c1)CN(C1CCC(=O)NC1=O)C2=S (stereo not drawn) [GT-08713, 3-(5-((3-(3-amino-6-(5-fluoro-2-hydroxyphenyl)pyridazin-4-yl)-3,8-diazabicyclo[3.2.1]octan-8-yl)methyl)-1-thioxoisoindolin-2-yl)piperidine-2,6-dione]",40 to 53,80 to 100
"COc1cc(N2CCC(N3CCN(Cc4cccc5c4CN(C4CCC(=O)NC4=O)C5=S)CC3)CC2)c(C)cc1Nc1ncc(Br)c(Nc2ccc3nccnc3c2P(C)(C)=O)n1 (stereo not drawn) [GT-05058, 3-(4-((4-(1-(4-((5-bromo-4-((5-(dimethylphosphoryl)quinoxalin-6-yl)amino)pyrimidin-2-yl)amino)-5-methoxy-2-methylphenyl)piperidin-4-yl)piperazin-1-yl)methyl)-1-thioxoisoindolin-2-yl)piperidine-2,6-dione]",40 to 53,80 to 100
"N#CC1(CNc2nc(-c3cc(NC4CCN(Cc5ccc6c(c5)C(=S)N(C5CCC(=O)NC5=O)C6)CC4)ncc3Cl)cs2)CCOCC1 (stereo not drawn) [GT-08750, 4-(((4-(5-chloro-2-((1-((2-(2,6-dioxopiperidin-3-yl)-3-thioxoisoindolin-5-yl)methyl)piperidin-4-yl)amino)pyridin-4-yl)thiazol-2-yl)amino)methyl)tetrahy dro-2H-pyran-4-carbonitrile]",60 to 80,80 to 100
